Assay results taken from patent US20230175072A1, “3 FLAP OKAZAKI FRAGMENTS AND USES THEREOF” (City of Hope, priority 2021, published 2023).
“Also recorded” adds a separate entry of the source. Like-named read-outs stand apart in the source and are kept apart here.

Key:
yeast cells [1] = experiment: MMS sensitivity spot assay; assay type: cell-based, Saccharomyces cerevisiae; conditions: YPD plates, 30° C., 48 h
Method: FIG. 6. pol3 ITD-bearing rad27Δ revertant mutations or pol3 ITD knock-in of rad27Δ cells partially reverses MMS-induced lethality. Viability of WT, pol3 ITD knock-in, rad27Δ, rad27Δ with the pol3 ITD knock-in mutation, and a rad27Δ revertant carrying a pol3 ITD mutation was analyzed using spot assays. Yeast cells of the indicated genetic backgrounds were serially diluted and spotted on YPD plates containing the indicated level of MMS. The plates were incubated at 30° C. for 48 hours.
To assay the MMS sensitivity of different yeast strains, 0.005%, 0.01%, 0.015% or 0.02% MMS was added to YPD plates after autoclaving, and plates were used the same day. Yeast cells were serially diluted and spotted on YPD plates containing different levels of MMS. The plates were incubated at 30° C. for 48 h.

yeast cells [2] = conditions: rad27Δ cells; cited from earlier work
Chk1 = target: T1, Chk1 (Mus musculus, UniProt O35280); experiment: Chk1 inhibition and lung cancer development in FEN1 FFAA mutant mice; assay type: in vivo; conditions: 0.025 mg/kg intraperitoneal once per week for four weeks from 6 months, lung tumors assessed at 16 months, vs DMSO
T1 construct: from tissue; host or cells: live mice (129S1 background), WT and FEN1 WT/FFAA heterozygotes
T1 sequence (O35280 1-476): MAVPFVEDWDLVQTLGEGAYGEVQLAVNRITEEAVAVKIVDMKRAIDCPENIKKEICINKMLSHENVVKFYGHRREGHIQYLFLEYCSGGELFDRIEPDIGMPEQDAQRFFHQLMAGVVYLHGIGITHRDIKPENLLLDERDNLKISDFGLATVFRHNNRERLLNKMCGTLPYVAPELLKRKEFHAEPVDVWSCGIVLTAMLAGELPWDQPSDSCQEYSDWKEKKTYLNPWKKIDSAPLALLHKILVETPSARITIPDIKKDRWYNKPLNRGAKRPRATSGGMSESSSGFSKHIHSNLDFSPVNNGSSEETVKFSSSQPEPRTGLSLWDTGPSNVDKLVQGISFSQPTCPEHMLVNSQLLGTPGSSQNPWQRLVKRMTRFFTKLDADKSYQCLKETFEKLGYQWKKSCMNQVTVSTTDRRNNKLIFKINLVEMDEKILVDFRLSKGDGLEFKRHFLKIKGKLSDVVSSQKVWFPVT
Text: FEN1 F343A/F344A (FFAA) heterozygous mice (WT/FFAA, 129S1 genetic background), which develop lung adenoma or adenocarcinoma at a high frequency (32), were in-line bred and housed in the Animal Resource Center at City of Hope. All experimental protocols involving animals were approved by the Institutional Animal Care and Use Committee of City of Hope in compliance with the Public Health Service policies of the United States. To determine the extent to which inhibiting Chk1 suppressed cancer development in FEN1 FFAA mutant mice, randomly selected WT or WT/FFAA male or female mice (6 months old) were treated with 0.025 mg/kg body weight SB218078 (Chk1 inhibitor) in DMSO via intraperitoneal injection once per week for four weeks. Untreated control mice were injected with the same volume of DMSO (vehicle). All mice were euthanized at 16 months of age. The presence of lung tumors was determined using anatomic and histopathological analysis in blinding fashion. For whole exome sequencing (WES) studies, WT or FEN1 A159V/WT mice (33) were euthanized at 16 months, and normal lung or lung tumors were dissected for total genomic DNA extraction and purification.
Two-tailed student's t-test was used to determine significance in differences in mutation rate assays and the hypergeometric test was used to determine the significance in the enrichment of a signaling pathway. […]

SMILES	MMS sensitivity of yeast cells (yeast cells [1]; pol3 ITD cells in a WT RAD27 background, high concentrations of MMS)	MMS sensitivity of yeast cells (yeast cells [1]; rad27Δ revertant cells and rad27Δ pol3 ITD knock-in mutant cells, higher concentrations (≥0.01%) MMS)	MMS sensitivity of yeast cells (yeast cells [1]; rad27Δ revertant cells and rad27Δ pol3 ITD knock-in mutant cells, low concentration (0.005%) MMS)	MMS sensitivity of yeast cells (yeast cells [2])	spontaneous lung cancer development (Chk1; WT mice)	spontaneous lung cancer development (Chk1; WT/FFAA (FEN1 F343A/F344A heterozygous) mice, 0.025 mg/kg)
COS(C)(=O)=O [MMS, methyl methanesulfonate]	sensitive	sensitive	resistant	sensitive		
O=C1NC(=O)c2c1c1c3ccccc3n3c1c1c2c2ccccc2n1C1CCC3O1 [SB218078]					not in WT mice	significantly inhibited spontaneous lung cancer development; also recorded: blocks lung cancer development
